Source: the supplement of paper PMC4862054

What was measured:
MDA-MB-468 [1] = test: drug sensitivity score (DSS), CellTiter-Glo (DSS (AUC-based score)); higher = stronger drug effect (viability inhibition or cytotoxicity); extreme values may be limits of the assay; details: incubation time: 72 h
Summary of the method: (§1)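 In 384-well plates, compound was laid out at 5 concentrations in 10-fold steps over a 10,000-fold range specific to each compound, and breast cancer cell lines were seeded on top in 20 µl suspension for a 72 h incubation. CellTox Green fluorescence and then CellTiter-Glo luminescence were read, and each plate was normalised to 0.1 % DMSO and a positive kill control. The drug sensitivity score was calculated from the area under the fitted dose-response curve.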

HCC1143 = test: as above; details: incubation time: 72 h
Summary of the method: as §1

MCF-10A = test: as above; details: incubation time: 72 h
Summary of the method: as §1

Hs578T = details: 72 h
Summary of the method: (§2)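 In this assay, breast cancer cell lines spent 72 h with compound at 5 concentrations in 10-fold steps over a compound-specific 10,000-fold range. The first readout was cell death by CellTox Green fluorescence, and the second was viability by CellTiter-Glo luminescence, each normalised per plate to 0.1 % DMSO and a positive kill control. EC50 came from the dose-response curves, censored at the top concentration.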

MDA-MB-231 = details: 72 h
Summary of the method: as §2

CAL-120 = details: 72 h
Summary of the method: as §2

MDA-MB-468 [2] = details: 72 h
Summary of the method: as §2

MDA-MB-436 = details: 72 h
Summary of the method: as §2

SK-BR-3 = details: 72 h
Summary of the method: as §2

HCC1599 = details: 72 h
Summary of the method: as §2

BT-474 = details: 72 h
Summary of the method: as §2

BT-549 = details: 72 h
Summary of the method: as §2

HCC1937 = details: 72 h
Summary of the method: as §2

HDQ-P1 = details: 72 h
Summary of the method: as §2

CAL-85-1 = details: 72 h
Summary of the method: as §2

MFM-223 = details: 72 h
Summary of the method: as §2

Structure (SMILES)	drug sensitivity score (MDA-MB-468 [1])	drug sensitivity score (HCC1143)	drug sensitivity score (MCF-10A)	EC50, CellTiter-Glo (Hs578T) [µM]	EC50, CellTiter-Glo (MDA-MB-231) [µM]	EC50, CellTiter-Glo (CAL-120) [µM]	EC50, CellTiter-Glo (MDA-MB-468 [2]) [µM]	EC50, CellTiter-Glo (MDA-MB-436) [µM]	EC50, CellTiter-Glo (SK-BR-3) [µM]	EC50, CellTiter-Glo (HCC1599) [µM]	EC50, CellTiter-Glo (BT-474) [µM]	EC50, CellTiter-Glo (BT-549) [µM]	EC50, CellTiter-Glo (HCC1937) [µM]	EC50, CellTiter-Glo (HDQ-P1) [µM]	EC50, CellTiter-Glo (CAL-85-1) [µM]	EC50, CellTiter-Glo (MFM-223) [µM]
CC(=O)[C@]1(O)Cc2c(O)c3c(c(O)c2[C@@H](O[C@H]2C[C@H](N)[C@H](O)[C@H](C)O2)C1)C(=O)c1ccccc1C3=O [Idarubicin]	9.11	3.11	3.11	0.281	0.286	0.58	0.152	0.134	0.185	0.466	0.404	0.144	0.665	0.837	0.252	0.47
O=C(CCCCCCC(=O)Nc1ccccc1)NO [Vorinostat]	8.49	4.04	1.17	6.67	3.17	8.47	1.2		3.47	3.99	3.76	7.34	6.28	8.32	2.32	5.67
O=[N+]([O-])c1ccc2c(c1)S(=O)(=O)C=C2 [Stattic]	24.4	6.56	5.13	3.13	2.76	11	0.446	7.93	8.89	10.6	7.66	1.01	2.46	12.7	1.63	2.73
CCNC(=O)c1noc(-c2cc(C(C)C)c(O)cc2O)c1-c1ccc(CN2CCOCC2)cc1 [NVP-AUY922]	21.8	11.2	16.2	0.0418	0.0404	0.0372	0.00455	0.00543	0.00709	0.0371	0.0424	0.0117	0.028	0.0141	0.0388	0.0102
CN(Cc1cnc2nc(N)nc(N)c2n1)c1ccc(C(=O)N[C@@H](CCC(=O)O)C(=O)O)cc1 [Methotrexate]	0	0	0	29	6.84	0.809		1.46		17.8	7.23		0.0204	0.0129	2.02	
CC1(COc2ccc3c(c2)ncn3-c2ccc3cccc(N4CCC(N)CC4)c3n2)COC1 [Crenolanib]	3.61	0	3.64	3.34	4.02		4.75	4.11	4.18	> 10	3.98	1.67	> 10	5.07	3.97	
CCN(CC)CCCC(C)Nc1ccnc2cc(Cl)ccc12 (stereo not given) [Chloroquine]	10.8	4.28	8.64	30.2	16.3	9.49	10.6	16.3	4.91	14.1	14.5	15	15.3	20.7	11.3	13.7
